Broadly, the EC50 is the concentration at which the effect is half-maximal. The term melting point denotes the temperature of the solid-liquid transition.

≈ marks a conversion by molar mass, not a printed value. Entries after “also recorded” stand apart in the source; their conditions may differ. Some results are limits rather than exact numbers.

Data on 22 compounds can be found in PMC4491105, “Synthesis and anticancer activity of thiosubstituted purines” (Medicinal Chemistry Research, 2015).

Series [1] concerns C-32 (human amelanotic melanoma). Nature of the series: Antiproliferative WST-1 assay, melanoma C-32. It counts as cell-based. The note with it: C-32 cells; for EC50: Homo sapiens, C32. As for the experimental part:
(§1) Compounds were evaluated for their anticancer activity using […] cultured cell lines: SNB-19 (human glioblastoma, DSMZ—German Collection of Microorganisms and Cell Cultures, Braunschweig, Germany), C-32 (human amelanotic melanoma, ATCC—American Type Culture Collection, Manassas, VA, USA), T47D (human ductal breast epithelial tumor cell line, ATCC, Manassas, VA, USA), and HFF-1 (human fibroblast cell line, ATCC, Manassas, VA, USA). The cultured cells were kept at 37 °C and 5 % CO2. The cells were seeded (1 × 10^4 cells/well/100 μl DMEM supplemented with 10 % FCS and streptomycin and penicillin) using 96-well plates (Corning).
(§2) In recent years, tetrazolium salts have been described which can be used for the measurement of cell proliferation and viability. The tetrazolium salts are cleaved to formazan by cellular enzymes. An expansion in the number of viable cells results in an increase in the overall activity of mitochondrial dehydrogenases in the sample. This augmentation in enzyme activity leads to an increase in the amount of formazan dye formed, which directly correlates with the number of metabolically active cells in the culture. The formazan dye produced by metabolically active cells is quantified by a scanning ELISA reader by measuring the absorbance of the dye solution at appropriate wavelengths (λ = 420–480 nm with a reference wavelength λ = 600 nm).
(§3) Antiproliferative effect of compounds was determined using the Cell Proliferation Reagent WST-1 assay (Roche Diagnostics, Mannheim, Germany). After exposure to tested compounds (at concentrations between 0 and 100 μg/ml) for 72 h, cells were incubated with WST-1 (10 μl) for 1 h, and the absorbance of the samples against a background control was read at 450 nm using with a reference wavelength λ = 600 nm a microplate reader. Results are expressed as means of at least two independent experiments performed in triplicate.
In general terms: Tetrazolium dyes change colour on reduction, which living cells bring about.

For series [2], the system named is T47D (human ductal breast epithelial tumor cell line). Nature of the series: Antiproliferative WST-1 assay, breast tumor T47D. The note with it: T47D cells; for EC50: Homo sapiens, read-out: Antiproliferative activity EC50 T47-D. It counts as cell-based. As for the experimental part:
as §1, §2, §3

Series [3] has as its system SNB-19 (human glioblastoma). Put plainly: Antiproliferative WST-1 assay, glioblastoma SNB-19. The note with it: for EC50: Homo sapiens, SNB-19, 72 h, read-out: Antiproliferative activity EC50 SBN-19; for EC50 / Antiproliferative activity EC50 SBN-19 / Activity against SNB-19 cell line (in words): SNB-19 cells; for EC50 / Antiproliferative activity EC50 SBN-19: 72 h exposure, WST-1; for Activity against SNB-19 cell line (in words): compared with azathioprine. It counts as cell-based. As for the experimental part: as §1, §2, §3

The test system of series [4] is HFF-1 (human fibroblast cell line). Nature of the series: Antiproliferative WST-1 assay, normal fibroblasts HFF-1 (toxicity control). It counts as cell-based. As for the experimental part: as §1, §2, §3
Setting [5] is: normal human fibroblasts HFF-1, 72 h exposure, WST-1.

On to `Cn1cnc([N+](=O)[O-])c1Sc1ncnc2nc[nH]c12` [Azathioprine, reference compound], for which the EC50 in series [1] (72 h exposure, WST-1) was 35.6 µg/mL (≈ 128 µM); in series [2] (72 h exposure, WST-1), 39 µg/mL (≈ 141 µM); in series [3], 37.2 µg/mL (≈ 134 µM); in series [4] (setting [5]) it was 55.9 µg/mL (≈ 202 µM).
In the case of `N.N.[Cl][Pt][Cl]` [Cisplatin, reference compound], the “Antiproliferative activity EC50 C-32” value in series [1] (72 h exposure, WST-1) turned out to be 6.28 µg/mL. Moreover, the “Antiproliferative activity EC50 T47-D” value in series [2] (72 h exposure, WST-1) stood at 8.79 µg/mL. Also, in series [3], the “Antiproliferative activity EC50 SBN-19” value was determined as 4.45 µg/mL. The “Antiproliferative activity EC50 HFF-1” value in series [4] (setting [5]) turned out to be 30.00 µg/mL.
`Cn1cnc([N+](=O)[O-])c1Sc1nc(Cl)c2c(ncn2C)n1` [Compound 2a]: the “Activity against C-32 cell line (in words)” value in series [1] is reported as “more active than azathioprine”. The EC50 in series [1] (72 h exposure, WST-1) is 21.8 µg/mL (≈ 66.8 µM); in series [2] (72 h exposure, WST-1), 41.1 µg/mL (≈ 126 µM); in series [3] it was 17.9 µg/mL (≈ 55 µM); in series [4] (setting [5]) it was > 50 µg/mL. Also, the “Activity against SNB-19 cell line (in words)” value in series [3] was “more active than azathioprine”.
For `C=CCSc1nc(Sc2c([N+](=O)[O-])ncn2C)nc2ncn(C)c12` [Compound 2b], in series [1], the “Activity against C-32 cell line (in words)” value is recorded as “more active than azathioprine”. The EC50 in series [1] (72 h exposure, WST-1) is 35.3 µg/mL (≈ 97.2 µM); in series [2] (72 h exposure, WST-1), 49.6 µg/mL (≈ 136 µM); in series [3], 33.3 µg/mL (≈ 91.5 µM); in series [4] (setting [5]), > 50 µg/mL. For the same compound, the “Activity against SNB-19 cell line (in words)” value in series [3] was “more active than azathioprine”.
As for `Cn1cnc([N+](=O)[O-])c1Sc1nc(Cl)nc2ncn(C)c12` [Compound 3a], the “Activity against C-32 cell line (in words)” value in series [1] is listed as “more active than azathioprine; also recorded: good activity”. In addition, the EC50 in series [1] (72 h exposure, WST-1) is 12.8 µg/mL (≈ 39.3 µM); in series [2] (72 h exposure, WST-1), > 50 µg/mL; in series [3] it was 30.4 µg/mL (≈ 93.3 µM); in series [4] (setting [5]), 34.9 µg/mL (≈ 107 µM). For the same compound, in series [3], the “Activity against SNB-19 cell line (in words)” value is given as “more active than azathioprine”.
For the compound `COc1nc(Sc2c([N+](=O)[O-])ncn2C)c2c(ncn2C)n1` [Compound 3b], the EC50 is > 50 µg/mL in series [1] (72 h exposure, WST-1); > 50 µg/mL in series [2] (72 h exposure, WST-1); > 50 µg/mL in series [3]; > 50 µg/mL in series [4] (setting [5]).
For the compound `CSc1nc(Sc2c([N+](=O)[O-])ncn2C)c2c(ncn2C)n1` [Compound 3c], the EC50 in series [1] (72 h exposure, WST-1) is > 50 µg/mL; in series [2] (72 h exposure, WST-1) it was 48.6 µg/mL (≈ 144 µM); in series [3], > 50 µg/mL; in series [4] (setting [5]), > 50 µg/mL.
`Cn1cnc([N+](=O)[O-])c1Sc1nc(Sc2c([N+](=O)[O-])ncn2C)c2c(ncn2C)n1` [Compound 3d, 7-methyl-2,6-di(1-methyl-4-nitroimidazol-5-ylthio)purine]: the EC50 in series [1] (72 h exposure, WST-1) was > 50 µg/mL; in series [2] (72 h exposure, WST-1), > 50 µg/mL; in series [3], > 50 µg/mL; in series [4] (setting [5]), > 50 µg/mL. Also, in series [3] (SNB-19, C-32 and T47D cell lines overall), the “Anticancer activity against tested cell lines (in words)” value is “inactive”.
As for `CCN(CC)CCSc1nc(Cl)nc2ncn(C)c12` [Compound 4a], the EC50 was 22.5 µg/mL (≈ 74.9 µM) in series [1] (72 h exposure, WST-1); 41.3 µg/mL (≈ 138 µM) in series [2] (72 h exposure, WST-1); 28.8 µg/mL (≈ 96 µM) in series [3]; > 50 µg/mL in series [4] (setting [5]).
With `CN(C)CCCSc1nc(Cl)nc2ncn(C)c12` [Compound 4b], the EC50 in series [1] (72 h exposure, WST-1) is > 50 µg/mL; in series [2] (72 h exposure, WST-1), > 50 µg/mL; in series [3], < 10 µg/mL; in series [4] (setting [5]) it was > 50 µg/mL. Moreover, the “Antiproliferative activity EC50 SBN-19” value in series [3] was 8.45 µg/mL.
As for `CCN(CC)CCSc1nc(SCCN(CC)CC)c2c(ncn2C)n1` [Compound 4c], the concentration giving a half-maximal response (EC50) in series [1] (72 h exposure, WST-1) was 33.5 µg/mL (≈ 84.6 µM); in series [2] (72 h exposure, WST-1), 24 µg/mL (≈ 60.5 µM); in series [3] it was < 10 µg/mL; in series [4] (setting [5]), 40 µg/mL (≈ 101 µM). The “Antiproliferative activity EC50 SBN-19” value in series [3] came to 9.82 µg/mL.
In the case of `CN(C)CCCSc1nc(SCCCN(C)C)c2c(ncn2C)n1` [Compound 4d], the concentration giving a half-maximal response (EC50) in series [1] (72 h exposure, WST-1) is > 50 µg/mL; in series [2] (72 h exposure, WST-1), > 50 µg/mL; in series [3], 36.3 µg/mL (≈ 98.4 µM); in series [4] (setting [5]) it was > 50 µg/mL.
Consider `Cn1cnc2nc(SCCN3CCCC3)nc(SCCN3CCCC3)c21` [Compound 4e], for which the EC50 in series [1] (72 h exposure, WST-1) is 27.1 µg/mL (≈ 68.9 µM); in series [2] (72 h exposure, WST-1), 38.4 µg/mL (≈ 97.8 µM); in series [3], < 10 µg/mL; in series [4] (setting [5]) it was 35.4 µg/mL (≈ 90.2 µM). Besides, the “Antiproliferative activity EC50 SBN-19” value in series [3] was 7.95 µg/mL.
The like results for `Cn1cnc2nc(SCCN3CCCCC3)nc(SCCN3CCCCC3)c21` [Compound 4f] were, in that order, 21.8 µg/mL (≈ 51.8 µM), 32.2 µg/mL (≈ 76.7 µM), < 10 µg/mL, 45.5 µg/mL (≈ 108 µM) and 9.18 µg/mL.
For `Cn1cnc2nc(SCCN3CCOCC3)nc(SCCN3CCOCC3)c21` [Compound 4g], the EC50 was > 50 µg/mL in series [1] (72 h exposure, WST-1); > 50 µg/mL in series [2] (72 h exposure, WST-1); > 50 µg/mL in series [3]; > 50 µg/mL in series [4] (setting [5]).
For the compound `C#CCSc1nc(Cl)nc2ncn(C)c12` [Compound 5a, 2-chloro-6-(prop-2-ynylthio)-7-methylpurine], the melting point fell in the range of 183 to 184 °C. The compound also registered an EC50 in series [1] (72 h exposure, WST-1) of 35.4 µg/mL (≈ 148 µM). The EC50 in series [2] (72 h exposure, WST-1) is 44.3 µg/mL (≈ 186 µM). Moreover, the EC50 in series [3] was 30.9 µg/mL (≈ 130 µM). The compound also displayed an EC50 in series [4] (setting [5]) of 49 µg/mL (≈ 205 µM).
`Cn1cnc2nc(Cl)nc(SCC#CCN3CCCC3)c21` [Compound 5b, 2-chloro-6-(4-N-pyrrolidinylbut-2-ynylthio)-7-methylpurine] showed a melting point of 129 to 130 °C. The compound further gave an EC50 in series [1] (72 h exposure, WST-1) of 7.58 µg/mL (≈ 23.6 µM). For the same compound, the EC50 in series [2] (72 h exposure, WST-1) worked out at 46 µg/mL (≈ 143 µM). The “Activity against T47D cell line (in words)” value in series [2] is reported as “weak active”. In addition, in series [3], the EC50 was found to be 5 µg/mL (≈ 15.5 µM). Moreover, the “Toxicity against normal fibroblasts HFF-1 (in words)” value in series [4] (HFF-1 cells) is given as “weak active”. In series [4] (setting [5]), this compound showed an EC50 of 43.1 µg/mL (≈ 134 µM).
On to `Cn1cnc2nc(Cl)nc(S(N)(=O)=O)c21` [Compound 8a, 2-Chloro-7-methyl-6-purinesulfonamide], for which the EC50 in series [1] (72 h exposure, WST-1) is > 50 µg/mL; in series [2] (72 h exposure, WST-1), > 50 µg/mL; in series [3], > 50 µg/mL; in series [4] (setting [5]), > 50 µg/mL.
For the compound `COc1nc(S(N)(=O)=O)c2c(ncn2C)n1` [Compound 8b, 2-Methoxy-7-methyl-6-purinesulfonamide], the EC50 was > 50 µg/mL in series [1] (72 h exposure, WST-1); > 50 µg/mL in series [2] (72 h exposure, WST-1); 35 µg/mL (≈ 144 µM) in series [3]; > 50 µg/mL in series [4] (setting [5]).
`CSc1nc(S(N)(=O)=O)c2c(ncn2C)n1` [Compound 8c, 2-Methylthio-7-methyl-6-purinesulfonamide]: the EC50 in series [1] (72 h exposure, WST-1) was > 50 µg/mL; in series [2] (72 h exposure, WST-1) it was > 50 µg/mL; in series [3] it was > 50 µg/mL; in series [4] (setting [5]) it was > 50 µg/mL.
Take `Cn1cnc2nc(S(N)(=O)=O)nc(S(N)(=O)=O)c21` [Compound 8d, 7-Methyl-2,6-purinedisulfonamide]: the EC50 in series [1] (72 h exposure, WST-1) is > 50 µg/mL; in series [2] (72 h exposure, WST-1), > 50 µg/mL; in series [3] it was > 50 µg/mL; in series [4] (setting [5]) it was > 50 µg/mL.
As for `Cn1cnc2nc(Cl)nc(SN)c21` [Compound 10a, 2-Chloro-7-methyl-6-purinesulfenamide], the EC50 in series [1] (72 h exposure, WST-1) was > 50 µg/mL; in series [2] (72 h exposure, WST-1), > 50 µg/mL; in series [3], > 50 µg/mL; in series [4] (setting [5]) it was > 50 µg/mL.
